{"source": "patent US8242166B2", "about": "“C(10) ethyl ester and C(10) cyclopropyl ester substituted taxanes” (Florida State University Research Foundation, Inc., priority 2008, dated 2012)", "key": {"HOP-18": {"system": "HOP-18", "experiment": "MTT cytotoxicity (IC50), HOP-18", "format": "cell-based", "settings": "Homo sapiens, 72 h, read-out: IN Vitro IC50 (nm) HOP18", "description": "(§1) Compound 17932 was tested in four of these cell lines, while the remaining compounds were tested in all of these cell lines. All cell lines were maintained in RPMI-1640 tissue culture medium (TCM, supplemented with antibiotics and 10% fetal bovine serum) and cultured at 37° C. in humidified air containing 5% CO2. To assess the antiproliferative effects of the test compounds, 172 μL of tumor cell suspension (1.45×10^4 cells/ml) were added to each well of a 96-well plate and incubated for 24 h at 37° C. in 5% CO2 in air to allow cells to adhere. Seven 2-fold drug dilutions in TCM/DMSO were performed in triplicate in separate 96-well plates and 28 μL was transferred to the wells containing tumor cells (200 μL final volume/0.1% DMSO). Plates were incubated for 72 h and cell viability was determined by adding 50 μL of warm TCM containing 5 mg/mL MTT (3-[4,5-dimethylthiazol-2-yl]-2,5-diphenyltetrazolium bromide) to each well and incubating for 1 h at 37° C. Plates were processed and the absorbances of the resulting solutions were measured by a plate reader at 570 nm. […] (GraphPad Prism version 4.00 for Windows). Studies were conducted by Taxolog, Inc., Tallahassee, Fla."}, "DLD-1": {"system": "DLD-1", "experiment": "MTT cytotoxicity (IC50), DLD-1", "format": "cell-based", "settings": "Homo sapiens", "description": "as §1"}, "SK-MEL-28": {"system": "SK-MEL-28", "experiment": "MTT cytotoxicity (IC50), SK-MEL-28", "format": "cell-based", "settings": "Homo sapiens, 72 h, read-out: IN Vitro IC50 (nm) ske-mel28", "description": "as §1"}, "[1]": {"system": "human MX-1 breast carcinoma", "experiment": "MX1 xenograft study e219R1, i.v. single dose (Example 17)", "settings": "for CR (complete regression) / NTR (non-treatment-related death) / PR (partial regression) / TFS (tumor-free survivor) / TR (treatment-related death): n=5"}, "OVCAR5": {"system": "OVCAR5", "experiment": "MTT cytotoxicity (IC50), OVCAR5", "format": "cell-based", "settings": "Homo sapiens, OVCAR-5, 72 h, read-out: IN Vitro IC50 (nm) OVCAR5", "description": "as §1"}, "[2]": {"system": "HT29 human tumor xenografts", "experiment": "HT29 xenograft study e212, oral and i.v. (Example 26)", "settings": "for CR (complete regression) / NTR NTRa/u / NTR NTRm / PR (partial regression) / TFS (tumor-free survivor) / TR (treatment-related death): n=6", "excerpt": "The formulation for oral studies was an ethanol and Cremophor formulation while the formulation for compound 18365 and compound 19244 dosed i.v. was 5% ethanol and 95% Liposyn II 20%."}, "OVCAR4": {"system": "OVCAR4", "experiment": "MTT cytotoxicity (IC50), OVCAR4", "format": "cell-based", "settings": "Homo sapiens, OVCAR-4, 72 h, read-out: IN Vitro IC50 (nm) OVCAR4", "description": "as §1"}, "MALME-3": {"system": "MALME-3", "experiment": "MTT cytotoxicity (IC50), MALME-3", "format": "cell-based", "settings": "Homo sapiens, 72 h, read-out: IN Vitro IC50 (nm) Malme3", "description": "as §1"}, "786-0": {"system": "786-0", "experiment": "MTT cytotoxicity (IC50), 786-0", "format": "cell-based", "settings": "Homo sapiens", "description": "as §1"}, "A549": {"system": "A549", "experiment": "MTT cytotoxicity (IC50), A549", "format": "cell-based", "settings": "Homo sapiens, 72 h, read-out: IN Vitro IC50 (nm) A549", "description": "as §1"}, "[3]": {"settings": "25 mg/kg iv q4d × 4, vehicle EL"}, "[4]": {"settings": "50 mg/kg po q4d × 4, vehicle EC"}}, "note": "Read-outs that look alike come from different tables or passages of the source.", "data": [{"smiles": "CCC(=O)O[C@H]1C(=O)[C@@]2(C)C([C@H](OC(=O)c3ccccc3)[C@]3(O)C[C@H](OC(=O)[C@H](O)[C@@H](NC(=O)OC4CCCC4)c4cccs4)C(C)=C1C3(C)C)[C@]1(OC(C)=O)CO[C@@H]1C[C@@H]2O", "note": "(stereo partly drawn) [Compound 18926]", "values": [{"measurement": "IC50", "setting": "HOP-18", "value": 1.6, "unit": "nM"}, {"measurement": "IC50", "setting": "DLD-1; MTT, 72 h, read-out: IN Vitro IC50 (nm) DLD1", "value": 0.8, "unit": "nM"}, {"measurement": "IC50", "setting": "DLD-1; Resistance MDR1+, read-out: DLD1 Colon (Table 4, quantity not named; IC50 values as Table 2)", "value": 0.8, "unit": "nM"}, {"measurement": "IC50", "setting": "SK-MEL-28", "value": 0.6, "unit": "nM"}, {"measurement": "% TGD", "setting": "[1]; 7.5 mg/kg iv qd × 1", "value": 16.46, "unit": "%"}, {"measurement": "BW Nadir", "setting": "[1]; 7.5 mg/kg iv qd × 1", "value": "−7.6% (3)"}, {"measurement": "Median TTE", "setting": "[1]; 7.5 mg/kg iv qd × 1", "value": 37.43, "unit": "days"}, {"measurement": "T-C", "setting": "[1]; 7.5 mg/kg iv qd × 1", "value": 5.29, "unit": "days"}, {"measurement": "activity (statistical significance)", "setting": "[1]; 7.5 mg/kg iv qd × 1", "value": "non-significant activity"}, {"measurement": "maximum group mean BW loss", "setting": "[1]; 7.5 mg/kg iv qd × 1", "value": 7.6, "unit": "%"}, {"measurement": "CR (complete regression)", "setting": "[1]; 7.5 mg/kg iv qd × 1", "value": 0}, {"measurement": "NTR (non-treatment-related death)", "setting": "[1]; 7.5 mg/kg iv qd × 1", "value": 0}, {"measurement": "PR (partial regression)", "setting": "[1]; 7.5 mg/kg iv qd × 1", "value": 0}, {"measurement": "TFS (tumor-free survivor)", "setting": "[1]; 7.5 mg/kg iv qd × 1", "value": 0}, {"measurement": "TR (treatment-related death)", "setting": "[1]; 7.5 mg/kg iv qd × 1", "value": 0}, {"measurement": "% TGD", "setting": "[1]; 15 mg/kg iv qd × 1", "value": 89.79, "unit": "%"}, {"measurement": "BW Nadir", "setting": "[1]; 15 mg/kg iv qd × 1", "value": "−6.6% (4)"}, {"measurement": "MTV (n), Day 60", "setting": "[1]; 15 mg/kg iv qd × 1", "value": "0.00 (4) mm^3"}, {"measurement": "Median TTE", "setting": "[1]; 15 mg/kg iv qd × 1", "value": 61, "unit": "days"}, {"measurement": "T-C", "setting": "[1]; 15 mg/kg iv qd × 1", "value": 28.86, "unit": "days"}, {"measurement": "maximum group mean BW loss", "setting": "[1]; 15 mg/kg iv qd × 1", "value": 6.6, "unit": "%"}, {"measurement": "CR (complete regression)", "setting": "[1]; 15 mg/kg iv qd × 1", "value": 4}, {"measurement": "NTR (non-treatment-related death)", "setting": "[1]; 15 mg/kg iv qd × 1", "value": 0}, {"measurement": "PR (partial regression)", "setting": "[1]; 15 mg/kg iv qd × 1", "value": 0}, {"measurement": "TFS (tumor-free survivor)", "setting": "[1]; 15 mg/kg iv qd × 1", "value": 4}, {"measurement": "TR (treatment-related death)", "setting": "[1]; 15 mg/kg iv qd × 1", "value": 0}, {"measurement": "% TGD", "setting": "[1]; 30 mg/kg iv qd × 1", "value": 89.79, "unit": "%"}, {"measurement": "BW Nadir", "setting": "[1]; 30 mg/kg iv qd × 1", "value": "−15.5% (5)"}, {"measurement": "MTV (n), Day 60", "setting": "[1]; 30 mg/kg iv qd × 1", "value": "0.00 (5) mm^3"}, {"measurement": "Median TTE", "setting": "[1]; 30 mg/kg iv qd × 1", "value": 61, "unit": "days"}, {"measurement": "T-C", "setting": "[1]; 30 mg/kg iv qd × 1", "value": 28.86, "unit": "days"}, {"measurement": "maximum group mean BW loss", "setting": "[1]; 30 mg/kg iv qd × 1", "value": 15.5, "unit": "%"}, {"measurement": "CR (complete regression)", "setting": "[1]; 30 mg/kg iv qd × 1", "value": 5}, {"measurement": "NTR (non-treatment-related death)", "setting": "[1]; 30 mg/kg iv qd × 1", "value": 0}, {"measurement": "PR (partial regression)", "setting": "[1]; 30 mg/kg iv qd × 1", "value": 0}, {"measurement": "TFS (tumor-free survivor)", "setting": "[1]; 30 mg/kg iv qd × 1", "value": 5}, {"measurement": "TR (treatment-related death)", "setting": "[1]; 30 mg/kg iv qd × 1", "value": 0}, {"measurement": "minimal effective dose", "setting": "[1]; iv qd × 1, lowest dose with statistically significant results and at least one D61 survivor or regression", "value": 15, "unit": "mg/kg"}, {"measurement": "IC50", "setting": "OVCAR5", "value": 0.2, "unit": "nM"}, {"measurement": "CR (complete regression)", "setting": "[2]; 25 mg/kg iv q4d × 4", "value": 5}, {"measurement": "NTR NTRa/u", "setting": "[2]; 25 mg/kg iv q4d × 4", "value": 0}, {"measurement": "NTR NTRm", "setting": "[2]; 25 mg/kg iv q4d × 4", "value": 0}, {"measurement": "PR (partial regression)", "setting": "[2]; 25 mg/kg iv q4d × 4", "value": 0}, {"measurement": "TFS (tumor-free survivor)", "setting": "[2]; 25 mg/kg iv q4d × 4", "value": 5}, {"measurement": "TR (treatment-related death)", "setting": "[2]; 25 mg/kg iv q4d × 4", "value": 1}, {"measurement": "% TGD", "setting": "[2]; [3]", "value": 237.14, "unit": "%"}, {"measurement": "BW Nadir", "setting": "[2]; [3]", "value": "13.5% (17)"}, {"measurement": "MTV (n), Day 59", "setting": "[2]; [3]", "value": "0.00 (5) mm^3"}, {"measurement": "Median TTE", "setting": "[2]; [3]", "value": 59, "unit": "days"}, {"measurement": "T-C", "setting": "[2]; [3]", "value": 41.5, "unit": "days"}, {"measurement": "CR (complete regression)", "setting": "[2]; 50 mg/kg po q4d × 4", "value": 1}, {"measurement": "NTR NTRa/u", "setting": "[2]; 50 mg/kg po q4d × 4", "value": 0}, {"measurement": "NTR NTRm", "setting": "[2]; 50 mg/kg po q4d × 4", "value": 0}, {"measurement": "PR (partial regression)", "setting": "[2]; 50 mg/kg po q4d × 4", "value": 5}, {"measurement": "TFS (tumor-free survivor)", "setting": "[2]; 50 mg/kg po q4d × 4", "value": 1}, {"measurement": "TR (treatment-related death)", "setting": "[2]; 50 mg/kg po q4d × 4", "value": 0}, {"measurement": "% TGD", "setting": "[2]; [4]", "value": 237.14, "unit": "%"}, {"measurement": "BW Nadir", "setting": "[2]; [4]", "value": "10.4% (17)"}, {"measurement": "MTV (n), Day 59", "setting": "[2]; [4]", "value": "20.25 (6) mm^3"}, {"measurement": "Median TTE", "setting": "[2]; [4]", "value": 59, "unit": "days"}, {"measurement": "T-C", "setting": "[2]; [4]", "value": 41.5, "unit": "days"}, {"measurement": "IC50", "setting": "OVCAR4", "value": 1, "unit": "nM"}, {"measurement": "IC50", "setting": "MALME-3", "value": 1.8, "unit": "nM"}, {"measurement": "IC50", "setting": "786-0; MTT, 72 h, read-out: IN Vitro IC50 (nm) 786-0", "value": 0.7, "unit": "nM"}, {"measurement": "IC50", "setting": "786-0; Resistance MDR1+, read-out: 786-0 Renal (Table 4, quantity not named; IC50 values as Table 2)", "value": 0.7, "unit": "nM"}, {"measurement": "IC50", "setting": "A549", "value": 0.4, "unit": "nM"}]}]}
